Data from PMC9103764, “Pilot Study on Acute Effects of Pharmacological Intraperitoneal L-Homoarginine on Homeostasis of Lysine and Other Amino Acids in a Rat Model of Isoprenaline-Induced Takotsubo Cardiomyopathy” (International Journal of Molecular Sciences, 2022).

Columns and labels:
[1] = tested on: L-Arginine:glycine amidinotransferase (AGAT); assay: Equilibrium constants of the AGAT-catalyzed reactions calculated from free amino acid concentrations in rat organs; format: in vivo, Sprague-Dawley rats
[2] = design: method as in PMID 28710553; details: single i.p. hArg 20, 220, 440 mg/kg; cited from earlier work
[3] = design: method as in PMID 31776762; details: decarboxylation product of hArg; rat TTC model; cited from earlier work
[4] = oral hArg 125 mg/day, cited from earlier work
[5] = design: method as in PMID 24004504; details: cited from earlier work
arginase = tested on: arginase; design: method as in PMID 31028716; details: cited from earlier work
polyamine catabolism = assay: Putrescine:spermidine (PUT/SPD) molar ratio in organ homogenates; details: R17; hArg 440 mg/kg i.p.; 14 min; without isoprenaline
[6] = Free amino acids by GC-MS in organ homogenates of rats given i.p. hArg (isoprenaline-induced takotsubo model)
[7] = design: method as in PMID 9127274; details: rat; cited from earlier work
[8] = R1, hArg 440 mg/kg i.p., sacrifice 32 min, ISO 50 mg/kg i.p. at 15 min
[9] = R2, hArg 20 mg/kg i.p., sacrifice 64 min, ISO 50 mg/kg i.p. at 15 min
[10] = R3, hArg 20 mg/kg i.p., sacrifice 28 min, ISO 50 mg/kg i.p. at 15 min
[11] = R4, hArg 440 mg/kg i.p., sacrifice 87 min, ISO 50 mg/kg i.p. at 15 min
[12] = R13, hArg 20 mg/kg i.p., sacrifice 126 min, ISO 50 mg/kg i.p. at 15 min
[13] = R14, hArg 220 mg/kg i.p., sacrifice 108 min, ISO 50 mg/kg i.p. at 15 min
[14] = R17, hArg 440 mg/kg i.p., sacrifice 14 min, no ISO
[15] = R18, hArg 20 mg/kg i.p., sacrifice 114 min, ISO 50 mg/kg i.p. at 15 min
[16] = R19, hArg 220 mg/kg i.p., sacrifice 98 min, ISO 50 mg/kg i.p. at 15 min
[17] = hArg treatment, mice, dose-dependent

Compound: N=C(N)NCCCC[C@H](N)C(=O)O [hArg, L-homoarginine]
- KhArg/KGAA ratio, kidney [1, 8]: 0.13
- KhArg/KGAA ratio, lung [1, 8]: 6.8
- equilibrium constant KGAA, kidney [1, 8]: 1.83
- equilibrium constant KGAA, lung [1, 8]: 0.06
- equilibrium constant KhArg, kidney [1, 8]: 0.24
- equilibrium constant KhArg, lung [1, 8]: 0.40
- KhArg/KGAA ratio, heart [1, 9]: 0.002
- KhArg/KGAA ratio, kidney [1, 9]: 0.23
- KhArg/KGAA ratio, liver [1, 9]: 0.19
- KhArg/KGAA ratio, lung [1, 9]: 0.13
- equilibrium constant KGAA, heart [1, 9]: 2.26
- equilibrium constant KGAA, kidney [1, 9]: 0.31
- equilibrium constant KGAA, liver [1, 9]: 0.09
- equilibrium constant KGAA, lung [1, 9]: 0.023
- equilibrium constant KhArg, heart [1, 9]: 0.005
- equilibrium constant KhArg, kidney [1, 9]: 0.07
- equilibrium constant KhArg, liver [1, 9]: 0.02
- equilibrium constant KhArg, lung [1, 9]: 0.003
- KhArg/KGAA ratio, heart [1, 10]: 0.001
- KhArg/KGAA ratio, kidney [1, 10]: 0.16
- KhArg/KGAA ratio, liver [1, 10]: 0.35
- KhArg/KGAA ratio, lung [1, 10]: 0.06
- equilibrium constant KGAA, heart [1, 10]: 1.39
- equilibrium constant KGAA, kidney [1, 10]: 0.37
- equilibrium constant KGAA, liver [1, 10]: 2.11
- equilibrium constant KGAA, lung [1, 10]: 5.34
- equilibrium constant KhArg, heart [1, 10]: 0.002
- equilibrium constant KhArg, kidney [1, 10]: 0.06
- equilibrium constant KhArg, liver [1, 10]: 0.74
- equilibrium constant KhArg, lung [1, 10]: 0.31
- KhArg/KGAA ratio, kidney [1, 11]: 2.18
- KhArg/KGAA ratio, liver [1, 11]: 1.61
- KhArg/KGAA ratio, lung [1, 11]: 2.61
- equilibrium constant KGAA, kidney [1, 11]: 0.53
- equilibrium constant KGAA, liver [1, 11]: 12.6
- equilibrium constant KGAA, lung [1, 11]: 0.13
- equilibrium constant KhArg, kidney [1, 11]: 1.16
- equilibrium constant KhArg, liver [1, 11]: 20.3
- equilibrium constant KhArg, lung [1, 11]: 0.34
- KhArg/KGAA ratio, heart [1, 12]: 0.43
- KhArg/KGAA ratio, kidney [1, 12]: 0.006
- KhArg/KGAA ratio, liver [1, 12]: 0.31
- KhArg/KGAA ratio, lung [1, 12]: 0.27
- equilibrium constant KGAA, heart [1, 12]: 0.23
- equilibrium constant KGAA, kidney [1, 12]: 1.14
- equilibrium constant KGAA, liver [1, 12]: 2.45
- equilibrium constant KGAA, lung [1, 12]: 0.07
- equilibrium constant KhArg, heart [1, 12]: 0.10
- equilibrium constant KhArg, kidney [1, 12]: 0.007
- equilibrium constant KhArg, liver [1, 12]: 0.76
- equilibrium constant KhArg, lung [1, 12]: 0.02
- KhArg/KGAA ratio, heart [1, 13]: 1.9
- KhArg/KGAA ratio, kidney [1, 13]: 0.05
- KhArg/KGAA ratio, liver [1, 13]: 4.8
- KhArg/KGAA ratio, lung [1, 13]: 1.13
- equilibrium constant KGAA, heart [1, 13]: 0.20
- equilibrium constant KGAA, kidney [1, 13]: 1.32
- equilibrium constant KGAA, liver [1, 13]: 1.07
- equilibrium constant KGAA, lung [1, 13]: 0.03
- equilibrium constant KhArg, heart [1, 13]: 0.38
- equilibrium constant KhArg, kidney [1, 13]: 0.06
- equilibrium constant KhArg, liver [1, 13]: 5.16
- equilibrium constant KhArg, lung [1, 13]: 0.03
- KhArg/KGAA ratio, heart [1, 14]: 3.8
- KhArg/KGAA ratio, kidney [1, 14]: 0.07
- KhArg/KGAA ratio, liver [1, 14]: 6.7
- KhArg/KGAA ratio, lung [1, 14]: 4.0
- equilibrium constant KGAA, heart [1, 14]: 0.09
- equilibrium constant KGAA, kidney [1, 14]: 1.64
- equilibrium constant KGAA, liver [1, 14]: 0.80
- equilibrium constant KGAA, lung [1, 14]: 0.04
- equilibrium constant KhArg, heart [1, 14]: 0.33
- equilibrium constant KhArg, kidney [1, 14]: 0.12
- equilibrium constant KhArg, liver [1, 14]: 5.38
- equilibrium constant KhArg, lung [1, 14]: 0.17
- KhArg/KGAA ratio, heart [1, 15]: 0.36
- KhArg/KGAA ratio, kidney [1, 15]: 0.005
- KhArg/KGAA ratio, liver [1, 15]: 0.12
- KhArg/KGAA ratio, lung [1, 15]: 0.12
- equilibrium constant KGAA, heart [1, 15]: 0.31
- equilibrium constant KGAA, kidney [1, 15]: 1.94
- equilibrium constant KGAA, liver [1, 15]: 4.20
- equilibrium constant KGAA, lung [1, 15]: 0.21
- equilibrium constant KhArg, heart [1, 15]: 0.11
- equilibrium constant KhArg, kidney [1, 15]: 0.009
- equilibrium constant KhArg, liver [1, 15]: 0.50
- equilibrium constant KhArg, lung [1, 15]: 0.03
- KhArg/KGAA ratio, kidney [1, 16]: 1.8
- KhArg/KGAA ratio, liver [1, 16]: 2.0
- equilibrium constant KGAA, kidney [1, 16]: 0.35
- equilibrium constant KGAA, liver [1, 16]: 2.59
- equilibrium constant KhArg, kidney [1, 16]: 0.62
- equilibrium constant KhArg, liver [1, 16]: 5.26
- equilibrium constant KhArg, lung [1, 16]: 0.20
- effect on citrullination (proteinic Cit) in organs (all organs, data not shown): independent of the hArg dose
- incorporation of pharmacological hArg into tissue proteins (rat, in vivo): no incorporation of pharmacological hArg into tissue proteins
- changes in nitrite and nitrate [2]: marginal
- tissue homoagmatine (hAgm) concentration, median [interquartile range] [3]: 34.8 [4.6–270] nM
- effects on cognition ([4]; healthy humans): did not reveal any appreciable effects on cognition
- increase of plasma Lys concentration compared to placebo ([4]; healthy young volunteers): about 8%
- pulse wave velocity, augmentation index, flow-mediated vasodilatation, corticospinal and cortical excitability ([4]; healthy young volunteers): without changes
- infarct size [5, 17]: decreased infarct sizes
- neurological scores [5, 17]: improved neurological scores
- hArg plasma concentration ([5]; oral hArg, C57BL6 mice, versus vehicle-treated): 0.20 ± 0.02 µM
- substrate quality for arginase (arginase): poor substrate
- PUT/SPD molar ratio, heart (polyamine catabolism): 1.5
- PUT/SPD molar ratio, kidney (polyamine catabolism): 0.86
- PUT/SPD molar ratio, liver (polyamine catabolism): 0.12
- PUT/SPD molar ratio, lung (polyamine catabolism): 0.83
- free Arg concentration, kidney homogenate [6, 8]: 365 µM
- free Arg concentration, lung homogenate [6, 8]: 102 µM
- free Lys concentration, kidney homogenate [6, 8]: 646 µM
- free Lys concentration, lung homogenate [6, 8]: 229 µM
- free Arg concentration, heart homogenate [6, 9]: 384 µM
- free Arg concentration, kidney homogenate [6, 9]: 37.4 µM
- free Arg concentration, liver homogenate [6, 9]: 124 µM
- free Arg concentration, lung homogenate [6, 9]: 210 µM
- free Lys concentration, heart homogenate [6, 9]: 644 µM
- free Lys concentration, kidney homogenate [6, 9]: 96 µM
- free Lys concentration, liver homogenate [6, 9]: 241 µM
- free Lys concentration, lung homogenate [6, 9]: 306 µM
- free Arg concentration, heart homogenate [6, 10]: 575 µM
- free Arg concentration, kidney homogenate [6, 10]: 60.7 µM
- free Arg concentration, liver homogenate [6, 10]: 14.3 µM
- free Arg concentration, lung homogenate [6, 10]: 7.34 µM
- free Lys concentration, heart homogenate [6, 10]: 834 µM
- free Lys concentration, kidney homogenate [6, 10]: 173 µM
- free Lys concentration, liver homogenate [6, 10]: 392 µM
- free Lys concentration, lung homogenate [6, 10]: 191 µM
- free Arg concentration, kidney homogenate [6, 11]: 73.8 µM
- free Arg concentration, liver homogenate [6, 11]: 10.3 µM
- free Arg concentration, lung homogenate [6, 11]: 185 µM
- free Lys concentration, kidney homogenate [6, 11]: 187 µM
- free Lys concentration, liver homogenate [6, 11]: 714 µM
- free Lys concentration, lung homogenate [6, 11]: 441 µM
- free Arg concentration, heart homogenate [6, 12]: 75.4 µM
- free Arg concentration, kidney homogenate [6, 12]: 370 µM
- free Arg concentration, liver homogenate [6, 12]: 21.2 µM
- free Arg concentration, lung homogenate [6, 12]: 261 µM
- free Lys concentration, heart homogenate [6, 12]: 151 µM
- free Lys concentration, kidney homogenate [6, 12]: 602 µM
- free Lys concentration, liver homogenate [6, 12]: 492 µM
- free Lys concentration, lung homogenate [6, 12]: 471 µM
- free Arg concentration, heart homogenate [6, 13]: 91.2 µM
- free Arg concentration, kidney homogenate [6, 13]: 733 µM
- free Arg concentration, liver homogenate [6, 13]: 15.9 µM
- free Arg concentration, lung homogenate [6, 13]: 171 µM
- free Lys concentration, heart homogenate [6, 13]: 154 µM
- free Lys concentration, kidney homogenate [6, 13]: 1101 µM
- free Lys concentration, liver homogenate [6, 13]: 391 µM
- free Lys concentration, lung homogenate [6, 13]: 245 µM
- free Arg concentration, heart homogenate [6, 14]: 92 µM
- free Arg concentration, kidney homogenate [6, 14]: 767 µM
- free Arg concentration, liver homogenate [6, 14]: 29.8 µM
- free Arg concentration, lung homogenate [6, 14]: 230 µM
- free Lys concentration, heart homogenate [6, 14]: 140 µM
- free Lys concentration, kidney homogenate [6, 14]: 1138 µM
- free Lys concentration, liver homogenate [6, 14]: 497 µM
- free Lys concentration, lung homogenate [6, 14]: 386 µM
- free Arg concentration, heart homogenate [6, 15]: 51.3 µM
- free Arg concentration, kidney homogenate [6, 15]: 262 µM
- free Arg concentration, liver homogenate [6, 15]: 10.1 µM
- free Arg concentration, lung homogenate [6, 15]: 136 µM
- free Lys concentration, heart homogenate [6, 15]: 153 µM
- free Lys concentration, kidney homogenate [6, 15]: 503 µM
- free Lys concentration, liver homogenate [6, 15]: 328 µM
- free Lys concentration, lung homogenate [6, 15]: 391 µM
- free Arg concentration, kidney homogenate [6, 16]: 56.3 µM
- free Arg concentration, liver homogenate [6, 16]: 15 µM
- free Arg concentration, lung homogenate [6, 16]: 233 µM
- free Lys concentration, kidney homogenate [6, 16]: 145 µM
- free Lys concentration, liver homogenate [6, 16]: 451 µM
- free Lys concentration, lung homogenate [6, 16]: 169 µM
- increase in free GAA in the kidney ([6]; after i.p. hArg, Figure 5): ~100 fold
- effect on global arginine bioavailability ratio (GABR) ([6]; all organs, data not shown): independent of the hArg dose

Compound: CC(C)NCC(O)c1ccc(O)c(O)c1 (centres unmarked) [isoprenaline]
- elimination half-life [7]: 10 min
